Test results taken from patent publication US20250171473A1, “Phosphorous Containing BCL Inhibitors and Senolytic Compounds and Uses Thereof” (Rubedo Life Sciences, Inc., priority 2023, published 2025).
pIC50: −log10 of the molar value.

Legend:
Type in all cases: cell-based
[1] = system: senescent A549 cells; assay: Senescence assay, viability of senescent A549 cells (CellTiter-Glo or XTT); settings: Homo sapiens; chemotherapy-induced senescent A549 cells; compounds 24-72 hours; viability relative to untreated control; read-out: Absolute IC50 average A549_SEN IC50
Protocol: (§1) Cells were maintained in DMEM media (high glucose, 4 mM L-glutamine, no sodium pyruvate) supplemented with 10% fetal bovine serum in a humidified incubator at 37° C. with 5% carbon dioxide. Senescence was induced via treatment with a sublethal concentration of chemotherapy (bleomycin, gemcitabine, doxorubicin, 5-fluorouridine, mitomycin C), followed by a rest period without chemotherapy similarly to what is reported by others in the field (e.g., Aoshiba et al., 2003 Eur Respir J 22:436-443). Senescence was qualified by low EdU (5-ethynyl-2′-deoxyuridine) incorporation and high SA-β-Gal (senescence-associated beta-galactosidase) staining compared to proliferating untreated cells. Senescent cells were plated into 96-well plates at a density of 5-15,000 cells/well. The next day, compounds were added in duplicate across ten different concentrations spanning roughly four Log10 units. Cells were incubated with the compounds for 24-72 hours, at which point viability was quantified using CellTiter-Glo (Promega) or XTT (R&D Systems). The viability for treated cells was determined relative to untreated control cells. The log of the compound concentration vs. normalized mean viability was fit to a four parameters Hill function with variable slope. The bottom was constrained to be greater than zero. The X mean value for Y=50 was interpolated to determine the absolute IC50. The results in Table 1 indicate that many of the compounds are active in cells and can induce a dose dependent decrease in the viability of senescent A549 and IMR90 cells.

[2] = system: senescent IMR90 cells; assay: Senescence assay, viability of senescent IMR90 cells (CellTiter-Glo or XTT); settings: Homo sapiens, IMR-90; chemotherapy-induced senescent IMR90 cells; compounds 24-72 hours; viability relative to untreated control; read-out: Absolute IC50 average IMR90_SEN IC50
Protocol: as §1

[3] = system: HACAT_SEN; assay: Senescence assay, viability of senescent HACAT cells (CellTiter-Glo or XTT); settings: Homo sapiens, compounds 24-72 hours, viability relative to untreated control, read-out: Absolute IC50 average HACAT_SEN IC50
Protocol: as §1, with “The results in Table 1 indicate that many of the compounds are active in cells and can induce a dose dependent decrease in the viability of senescent A549 and IMR90 cells.” left out

Row | SMILES | pIC50 [1] | pIC50 [2] | pIC50 [3]
1 | Cc1cc(N(C)c2nc(P(C)(=O)O)c(CCCOc3ccc(C#CCN(C)C)cc3F)s2)nnc1Nc1nc2ccccc2s1 [Compound 4, (2-((6-(benzo[d]thiazol-2-ylamino)-5-methylpyridazin-3-yl)(methyl)amino)-5-(3-(4-(3-(dimethylamino)prop-1-yn-1-yl)-2-fluorophenoxy)propyl)thiazol-4-yl)(methyl)phosphinic acid] | 6.00 to 7.00 | 5.00 to 6.00 | 
2 | CCOP(C)(=O)c1nc(N2CCc3cccc(C(=O)Nc4nc5ccccc5s4)c3C2)ccc1-c1cnn(CC23CC4CC(CC(C4)C2)C3)c1C (stereo not drawn) [Compound 1, ethyl(3-(1-(((3r,5r,7r)-adamantan-1-yl)methyl)-5-methyl-1H-pyrazol-4-yl)-6-(8-(benzo[d]thiazol-2-ylcarbamoyl)-3,4-dihydroisoquinolin-2 (1H)-yl)pyridin-2-yl)(methyl)phosphinate] | 7.00 to 8.00 | 7.00 to 8.00 | > 8.00
3 | Cc1c(-c2ccc(N3CCc4cccc(C(=O)Nc5nc6ccccc6s5)c4C3)nc2P(C)(=O)OCc2ccc(O[C@@H]3O[C@@H](C)[C@@H](O)[C@@H](O)[C@@H]3O)cc2)cnn1CC12CC3CC(CC(C3)C1)C2 (stereo partly drawn) [Compound 3, 4-(((2S,3S,4R,5S,6S)-3,4,5-trihydroxy-6-methyltetrahydro-2H-pyran-2-yl)oxy) benzyl(3-(1-(((3r,5r,7r)-adamantan-1-yl)methyl)-5-methyl-1H-pyrazol-4-yl)-6-(8-(benzo[d]thiazol-2-ylcarbamoyl)-3,4-dihydroisoquinolin-2 (1H)-yl)pyridin-2-yl)(methyl)phosphinate] | 7.00 to 8.00 | 6.00 to 7.00 | 
4 | Cc1c(-c2ccc(N3CCc4cccc(C(=O)Nc5nc6ccccc6s5)c4C3)nc2P(C)(=O)O)cnn1CC12CC3CC(CC(C3)C1)C2 [Compound 2, (3-(1-(((3r,5r,7r)-adamantan-1-yl)methyl)-5-methyl-1H-pyrazol-4-yl)-6-(8-(benzo[d]thiazol-2-ylcarbamoyl)-3,4-dihydroisoquinolin-2 (1H)-yl)pyridin-2-yl)(methyl)phosphinic acid] | 7.00 to 8.00 | 6.00 to 7.00 | 
